Assay results as given in patent US20220280661A1, “GLUCOCORTICOID RECEPTOR RADIOLIGANDS AND METHODS FOR THEIR PREPARATION AND USE” (The Regents of the University of California, priority 2019, published 2022).
Read-outs that look alike come from different tables or passages of the source.

Experiments:
[1] = Plasma protein binding, rapid equilibrium dialysis, human plasma; format: in vitro ADME; conditions: human, plasma, pH 7.4, human plasma
Method: (§1) Plasma Protein Binding Studies. The rapid equilibrium dialysis (RED) device inserts along with a Teflon base plate (Pierce, Rockford, Ill.) were used for the binding studies. The pH of the human or mouse plasma was adjusted to 7.4 prior to the experiment. DMSO stocks (1 mM) were spiked into the plasma to make a final concentration of 2 μM. The spiked plasma solutions (300 μL) were placed into the sample chamber (indicated by the red ring); and 500 μL of PBS buffer, pH 7.4, was placed into the adjacent chamber. The plate was incubated at 37° C. on an orbital shaker (250 rpm) for 4 hours.
(§2) After 4 hours, from the RED plate, aliquots (100 μL) were removed from each side of the insert (plasma and buffer) and dispensed into the 96-well plate. Subsequently, 100 μL of blank plasma was added to the buffer samples and 100 μL of blank buffer was added to all the collected plasma samples. 300 μL of quench solution (50% acetonitrile, 50% methanol, and 0.05% formic acid, warmed up at 37° C.) containing internal standards was added to each well. Plates were sealed, vortexed, and centrifuged at 4° C. for 15 minutes at 4000 rpm. The supernatant was transferred to fresh plates for LC/MS/MS analysis. The sample were analyzed on LC/MS/MS using an AB Sciex API 4000 instrument, coupled to a Shimadzu LC-20AD LC Pump system. Analytical samples were separated using a Waters Atlantis T3 dC18 reverse phase HPLC column (20 mm×2.1 mm) at a flow rate of 0.5 mL/min. The mobile phase consisted of 0.1% formic acid in water (solvent A) and 0.1% formic acid in acetonitrile (solvent B).
(§3) The percentage of test compound bound to protein was calculated by the following equations:
(§4) % Free=(Concentration in buffer chamber/Concentration in plasma chamber)×100%

[2] = test system: plasma protein; assay: as above; format: in vitro ADME; conditions: plasma (rapid equilibrium dialysis device), pH 7.4, human plasma
Method: as §1, §2, §3, §4

[3] = Dynamic PET scan of [18F]-YJH08, time activity curves; format: in vivo, mouse; conditions: two phase exponential decay fit; C57B16/J mice
Method: To understand the biodistribution of [18F]-YJH08 in vivo, a dynamic PET scan over 60 min was first conducted in immunocompetent male C57B16/J mice (FIG. 3A). Prior to injection, the formulated dose of [18F]-YJH08 was passed through a sterile 0.22 μm membrane. Approximately 300 μCi was injected via tail vein in a volume of 100-150 μL per mouse. After a given period of uptake time, the mice were anesthetized with 2-3% isoflurane, and imaged with a Siemens Inveon micro PET/CT. For dynamic acquisitions, the mice were anesthetized prior to injection, and injected while positioned on the scanner bed. All imaging data was decay corrected, reconstructed, and analyzed with AMIDE software. Maximum intensity projections (MIPs) were generated by AMIDE software. Regions of interest (ROI) were manually placed to calculate SUV data from the dynamic acquisitions.
First, the radiotracer rapidly cleared from serum, and fitting the data with a two phase exponential decay curve estimated the fast and slow half-lives to be ˜21 sec and ˜760 sec, respectively. Moreover, liver uptake was prominent at very early time points post injection (0-300 sec), with continuous washout from ˜300-3600 sec.

fraction unbound at 4 h, 2 μM ([1]; duplicate, read-out: % Bound (converted)) | fraction unbound at 4 h, 2 μM ([1]; read-out: % Bound Average (converted)) | recovery at 4 h, 2 μM [2] [%] | Compound | serum clearance fast half-life [3] [min] | serum clearance slow half-life [3] [min]
< 0.0001 | < 0.0001 | 97.6 | COc1cccc2c1-c1ccc3c(c1C(Cc1ccc(F)cc1)O2)C(C)=CC(C)(C)N3 (racemic) [YJH08, 5-(4-fluorobenzyl)-10-methoxy-2,2,4-trimethyl-2,5-dihydro-1H-chromeno[3,4-f]quinoline] | – | –
– | – | – | COc1cccc2c1-c1ccc3c(c1C(Cc1ccc([18F])cc1)O2)C(C)=CC(C)(C)N3 (racemic) [[18F]-YJH08, [^18F]-5-(4-fluorobenzyl)-10-methoxy-2,2,4-trimethyl-2,5-dihydro-1H-chromeno[3,4-f]quinoline] | ~0.35 | ~12.7
